The record followed here is US8785460B2, “Tricyclic compounds and use thereof” (Takeda Pharmaceutical Company Limited, priority 2008, dated 2014).

As usually defined, the IC50 is the concentration needed to halve the response being measured. Usually melting point stands for the temperature of the solid-liquid transition.

One data set deals with T1, human CRF1 receptor (Homo sapiens, UniProt P34998).
T1 construct: expressed in transfected cells; host or cells: CHO cells (membrane fraction)
T1 sequence (P34998 24-415): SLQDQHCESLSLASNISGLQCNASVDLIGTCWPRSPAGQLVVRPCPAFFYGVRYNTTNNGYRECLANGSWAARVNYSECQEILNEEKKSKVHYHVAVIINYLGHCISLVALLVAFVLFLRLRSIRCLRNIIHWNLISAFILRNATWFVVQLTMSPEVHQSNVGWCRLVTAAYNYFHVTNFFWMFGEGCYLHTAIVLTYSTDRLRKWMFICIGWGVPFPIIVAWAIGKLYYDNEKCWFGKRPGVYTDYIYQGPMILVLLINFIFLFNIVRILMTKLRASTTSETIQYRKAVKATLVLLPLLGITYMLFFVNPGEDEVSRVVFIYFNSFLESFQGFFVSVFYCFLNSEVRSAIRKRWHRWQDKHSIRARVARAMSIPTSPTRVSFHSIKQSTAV
Description: Measurement of CRF Binding Inhibitory Rate (receptor binding experiment with 125I-CRF). To be noted: human CRF1 receptor expressing CHO cellular membrane fraction, 50 pM 125I-CRF, room temperature 1.5 hr, 0.05 nM to 10 μM of compound; read-out: IC50 values (CRF binding inhibition).

Regarding `Clc1ccc(N2CCCn3c2nc2c(Cl)ccc(N(C4CC4)C4CC4)c23)c(Cl)c1` [Example 320, 9-Chloro-N,N-dicyclopropyl-1-(2,4-dichlorophenyl)-1,2,3,4-tetrahydropyrimido[1,2-a]benzimidazol-6-amine], the melting point was in the range of 211 to 213 °C. Besides, the half-inhibitory concentration (IC50) on human CRF1 receptor is < 1000 nM.

`CCN(CC)c1cccc2nc3n(c12)CC(CCO)N3c1ccc(Cl)cc1Cl` (stereo not shown) [Example 74, 2-[1-(2,4-Dichlorophenyl)-5-(diethylamino)-2,3-dihydro-1H-imidazo[1,2-a]benzimidazol-2-yl]ethanol]: the melting point is 222 to 223 °C. The half-inhibitory concentration (IC50) on human CRF1 receptor is < 1000 nM.

Turning to `CCC(CC)c1ccc(Cl)c2nc3n(c12)CCCCN3c1ccc(C)cc1C#N` [Example 36, 2-[10-Chloro-7-(1-ethylpropyl)-2,3,4,5-tetrahydro-1H-[1,3]diazepino[1,2-a]benzimidazol-1-yl]-5-methylbenzonitrile], the melting point was 176 to 180 °C. Besides, the IC50 on human CRF1 receptor was < 1000 nM.

`CCC(O)(CC)c1ccc(Cl)c2nc3n(c12)CCCN3c1ccc(Cl)cc1Cl` [Example 107, 3-[9-Chloro-1-(2,4-dichlorophenyl)-1,2,3,4-tetrahydropyrimido[1,2-a]benzimidazol-6-yl]pentan-3-ol] returned a melting point of 199 to 201 °C. Besides, the IC50 on human CRF1 receptor is < 1000 nM.

`CCC(CC)c1ccc(Cl)c2nc3n(c12)CCCCN3c1ccc([S+](C)[O-])cc1C` (stereo not shown) [Example 45, 10-Chloro-7-(1-ethylpropyl)-1-[2-methyl-4-(methylsulfinyl)phenyl]-2,3,4,5-tetrahydro-1H-[1,3]diazepino[1,2-a]benzimidazole] gave a melting point of 189 to 190 °C. Moreover, on human CRF1 receptor, the IC50 was < 1000 nM.

`CCN(CC)c1cccc2nc3n(c12)CCCN3c1nnc(Cl)cc1C` [Example 80, 1-(6-Chloro-4-methylpyridazin-3-yl)-N,N-diethyl-1,2,3,4-tetrahydropyrimido[1,2-a]benzimidazol-6-amine] gave a melting point of 193 to 195 °C. On human CRF1 receptor, the IC50 is < 1000 nM.

The compound `CCC(OC(C)=O)c1ccc(Cl)c2nc3n(c12)CCCN3c1ncc(Cl)cc1Cl` (stereo not shown) [Example 171, 1-[9-Chloro-1-(3,5-dichloropyridin-2-yl)-1,2,3,4-tetrahydropyrimido[1,2-a]benzimidazol-6-yl]propyl acetate] had a melting point of 157 to 159 °C. For the same compound, at human CRF1 receptor, the IC50 was < 1000 nM.

On to `CCC(CC)c1ccc(Cl)c2nc3n(c12)CCN3c1ccc(Cl)cc1Br` [Example 5, 1-(2-Bromo-4-chlorophenyl)-8-chloro-5-(1-ethylpropyl)-2,3-dihydro-1H-imidazo[1,2-a]benzimidazole], for which the melting point lay in the range of 169 to 171 °C. Further, the IC50 on human CRF1 receptor was < 1000 nM.

As for `Cc1cnc(N2CCCn3c2nc2c(Cl)ccc(C(O)(C4CC4)C4CC4)c23)c(C)n1` [Example 176, [9-Chloro-1-(3,5-dimethylpyrazin-2-yl)-1,2,3,4-tetrahydropyrimido[1,2-a]benzimidazol-6-yl](dicyclopropyl)methanol], the melting point is 152 to 153 °C. In addition, at human CRF1 receptor, the IC50 was < 1000 nM.

Compound `CCC(CC)c1ccc(Cl)c2nc3n(c12)CCCCN3c1ccc(Cl)cc1Cl` [Example 21, 10-Chloro-1-(2,4-dichlorophenyl)-7-(1-ethylpropyl)-2,3,4,5-tetrahydro-1H-[1,3]diazepino[1,2-a]benzimidazole] displayed a melting point of 160 to 162 °C. For the same compound, the IC50 at human CRF1 receptor was < 1000 nM.

Compound `COC(c1ccc(Cl)c2nc3n(c12)CCCN3c1ccc(Cl)cc1Cl)C1CC1` (stereo not shown) [Example 117, 9-Chloro-6-[cyclopropyl(methoxy)methyl]-1-(2,4-dichlorophenyl)-1,2,3,4-tetrahydropyrimido[1,2-a]benzimidazole] came in with a melting point of 138 to 139 °C. Further, on human CRF1 receptor, the IC50 is < 1000 nM.

Take `COc1ccc(N2CCCn3c2nc2c(Cl)ccc(C(O)(C4CC4)C4CC4)c23)c(C)n1` [Example 276, [9-Chloro-1-(6-methoxy-2-methylpyridin-3-yl)-1,2,3,4-tetrahydropyrimido[1,2-a]benzimidazol-6-yl](dicyclopropyl)methanol]: the melting point fell in the range of 208 to 210 °C. The IC50 on human CRF1 receptor is < 1000 nM.

As for `CCC(O)c1ccc(Cl)c2nc3n(c12)CCCN3c1c(Br)cc(OC)cc1Br` (stereo not shown) [Example 397, 1-[9-Chloro-1-(2,6-dibromo-4-methoxyphenyl)-1,2,3,4-tetrahydropyrimido[1,2-a]benzimidazol-6-yl]propan-1-ol], the melting point was 138 to 140 °C. The IC50 on human CRF1 receptor was < 1000 nM.

Compound `CCC(CC)c1ccc(Cl)c2nc3n(c12)CCCCN3c1ncc(C#N)cc1C` [Example 339, 6-[10-Chloro-7-(1-ethylpropyl)-2,3,4,5-tetrahydro-1H-[1,3]diazepino[1,2-a]benzimidazol-1-yl]-5-methylpyridine-3-carbonitrile] came in with a melting point of 213 °C. For the same compound, the IC50 at human CRF1 receptor was < 1000 nM.

In turn, `CC(C)(CO)c1ccc(Cl)c2nc3n(c12)CCCN3c1ccc(Cl)cc1Cl` [Example 148, 2-[9-Chloro-1-(2,4-dichlorophenyl)-1,2,3,4-tetrahydropyrimido[1,2-a]benzimidazol-6-yl]-2-methylpropan-1-ol] showed a melting point of 176 to 177 °C. Further, the IC50 on human CRF1 receptor is < 1000 nM.

`CCC(CC)c1cccc2nc3n(c12)CCCCN3c1ccc(OC)cc1OC` [Example 37, 1-(2,4-Dimethoxyphenyl)-7-(1-ethylpropyl)-2,3,4,5-tetrahydro-1H-[1,3]diazepino[1,2-a]benzimidazole] displayed a melting point of 145 to 148 °C. Also, the IC50 at human CRF1 receptor is < 1000 nM.

In the case of `CCCC(O)(CCC)c1ccc(Cl)c2nc3n(c12)CCCN3c1ccc(Cl)cc1C(F)(F)F` [Example 129, 4-{9-Chloro-1-[4-chloro-2-(trifluoromethyl)phenyl]-1,2,3,4-tetrahydropyrimido[1,2-a]benzimidazol-6-yl}heptan-4-ol], the melting point lay in the range of 200 to 202 °C. In addition, on human CRF1 receptor, the IC50 is < 1000 nM.

On to `CCC(CC)c1ccc(Cl)c2nc3n(c12)CCCCN3c1cnc(N2CCCC2)cc1C` [Example 29, 10-Chloro-7-(1-ethylpropyl)-1-(4-methyl-6-pyrrolidin-1-ylpyridin-3-yl)-2,3,4,5-tetrahydro-1H-[1,3]diazepino[1,2-a]benzimidazole], for which the melting point was in the range of 160 to 161 °C. Also, on human CRF1 receptor, the IC50 is < 1000 nM.

Take `CCN(CC)c1cccc2nc3n(c12)CCCNC3c1ccc(Cl)cc1Cl` (stereo not shown) [Example 509, 1-(2,4-Dichlorophenyl)-N,N-diethyl-2,3,4,5-tetrahydro-1H-[1,4]diazepino[1,2-a]benzimidazol-7-amine]: the melting point is 186 to 188 °C. Moreover, at human CRF1 receptor, the IC50 is < 1000 nM.

Regarding `CCN(CC)c1cccc2nc3n(c12)CCCN3c1cnc(OC)nc1OC` [Example 79, 1-(2,4-Dimethoxypyrimidin-5-yl)-N,N-diethyl-1,2,3,4-tetrahydropyrimido[1,2-a]benzimidazol-6-amine], the melting point lay within 170 to 171 °C. In addition, the concentration for half-maximal inhibition (IC50) on human CRF1 receptor was < 1000 nM.

`CCC(OCC(F)F)c1ccc(Cl)c2nc3n(c12)CCCN3c1ccc(OC)nc1C` (stereo not shown) [Example 273, 9-Chloro-6-[1-(2,2-difluoroethoxy)propyl]-1-(6-methoxy-2-methylpyridin-3-yl)-1,2,3,4-tetrahydropyrimido[1,2-a]benzimidazole] displayed a melting point of 130 to 132 °C. Moreover, on human CRF1 receptor, the concentration for half-maximal inhibition (IC50) is < 1000 nM.

`CCC(CC)c1ccc(Cl)c2nc3n(c12)CCCCN3c1ccc(C(=O)NC)cc1C` [Example 49, 4-[10-Chloro-7-(1-ethylpropyl)-2,3,4,5-tetrahydro-1H-[1,3]diazepino[1,2-a]benzimidazol-1-yl]-N,3-dimethylbenzamide] yielded a melting point of 127 to 128 °C. The IC50 at human CRF1 receptor is < 1000 nM.

Turning to `CCC(CC)c1ccc(Cl)c2nc3n(c12)CCCCN3c1cnc(OC)cc1C` [Example 30, 10-Chloro-7-(1-ethylpropyl)-1-(6-methoxy-4-methylpyridin-3-yl)-2,3,4,5-tetrahydro-1H-[1,3]diazepino[1,2-a]benzimidazole], the melting point is 112 to 114 °C. In addition, the half-inhibitory concentration (IC50) at human CRF1 receptor was < 1000 nM.

Consider `CCN(CC)c1cccc2nc3n(c12)CCCN=C3c1ccc(Cl)cc1Cl` [Example 511, 1-(2,4-Dichlorophenyl)-N,N-diethyl-4,5-dihydro-3H-[1,4]diazepino[1,2-a]benzimidazol-7-amine], for which the melting point fell in the range of 93 to 94 °C. Moreover, at human CRF1 receptor, the IC50 was < 1000 nM.

In turn, `Cc1nc(C#N)ccc1N1CCCn2c1nc1c(Cl)ccc(C(OC(F)F)C(F)(F)F)c12` (stereo not shown) [Example 292, 5-{9-Chloro-6-[1-(difluoromethoxy)-2,2,2-trifluoroethyl]-3,4-dihydropyrimido[1,2-a]benzimidazol-1(2H)-yl}-6-methylpyridine-2-carbonitrile] had a melting point of 177 to 180 °C. At human CRF1 receptor, the IC50 was < 1000 nM.

The compound `CCC(OC(C)=O)c1ccc(Cl)c2nc3n(c12)CCCCN3c1ccc(OC)cc1Cl` (stereo not shown) [Example 334, 1-[10-Chloro-1-(2-chloro-4-methoxyphenyl)-2,3,4,5-tetrahydro-1H-[1,3]diazepino[1,2-a]benzimidazol-7-yl]propyl acetate] came in with a melting point of 177 to 179 °C. For the same compound, the IC50 on human CRF1 receptor was < 1000 nM.
